Legend:
Type in all cases: in vivo
Kochia (Kochia scoparia) [1] = assay: Test A preemergence; conditions: Bassia scoparia, pre-emergence, 240 h, Preemergence; for pest or weed control at 31 g/ha: 31 g ai/ha, 0 to 100 scale where 0 is no effect and 100 is complete control, read-out: Kochia plant response rating; for pest or weed control at 125 g/ha: 125 g ai/ha, 0 to 100 scale (0 no effect, 100 complete control), read-out: Plant response rating, Kochia
Method in brief: (§1)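 In a loam soil and sand blend, planted seeds got a preemergence directed soil spray, and young plants at the one- to two-leaf stage, 2–10 cm high, got a postemergence application; ~10 d greenhouse hold; injury rated visually, 0 = none, 100 = complete control.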

[2] = test system: barnyardgrass (Echinochloa crus-galli); assay: Test A preemergence; conditions: Echinochloa crus-galli, pre-emergence, 240 h, Preemergence; for pest or weed control at 31 g/ha: 31 g ai/ha, 0 to 100 scale where 0 is no effect and 100 is complete control, read-out: Barnyardgrass plant response rating; for pest or weed control at 125 g/ha: 125 g ai/ha, 0 to 100 scale (0 no effect, 100 complete control), read-out: Plant response rating, Barnyardgrass
Method in brief: as §1

[3] = test system: giant foxtail (Setaria faberii); assay: Test A preemergence; conditions: Setaria faberi, pre-emergence, 240 h, Preemergence; for pest or weed control at 31 g/ha: 31 g ai/ha, 0 to 100 scale where 0 is no effect and 100 is complete control, read-out: Foxtail, Giant plant response rating; for pest or weed control at 125 g/ha: 125 g ai/ha, 0 to 100 scale (0 no effect, 100 complete control), read-out: Plant response rating, Foxtail, Giant
Method in brief: as §1

[4] = test system: pigweed (Amaranthus retroflexus); assay: Test A preemergence; conditions: Amaranthus retroflexus, pre-emergence, 240 h, Preemergence; for pest or weed control at 31 g/ha: 31 g ai/ha, 0 to 100 scale where 0 is no effect and 100 is complete control, read-out: Pigweed plant response rating; for pest or weed control at 125 g/ha: 125 g ai/ha, 0 to 100 scale (0 no effect, 100 complete control), read-out: Plant response rating, Pigweed
[5] = test system: ragweed (common ragweed, Ambrosia elatior); assay: Test A preemergence; conditions: Ambrosia artemisiifolia, pre-emergence, 240 h, Preemergence; for pest or weed control at 31 g/ha: 31 g ai/ha, 0 to 100 scale where 0 is no effect and 100 is complete control, read-out: Ragweed plant response rating; for pest or weed control at 125 g/ha: 125 g ai/ha, 0 to 100 scale (0 no effect, 100 complete control), read-out: Plant response rating, Ragweed
Method in brief: as §1

[6] = test system: ryegrass, Italian (Italian ryegrass, Lolium multiflorum); assay: Test A preemergence; conditions: Lolium multiflorum, pre-emergence, 240 h, Preemergence; for pest or weed control at 31 g/ha: 31 g ai/ha, 0 to 100 scale where 0 is no effect and 100 is complete control, read-out: Ryegrass, Italian plant response rating; for pest or weed control at 125 g/ha: 125 g ai/ha, 0 to 100 scale (0 no effect, 100 complete control), read-out: Plant response rating, Ryegrass, Italian
Method in brief: as §1

[7] = test system: Galium (catchweed bedstraw, Galium aparine); assay: Test A postemergence; conditions: Galium, post-emergence, 240 h, Postemergence, read-out: Galium plant response rating (0 to 100 scale); for pest or weed control at 125 g/ha: 125 g ai/ha, visual rating about 10 d after treatment; for pest or weed control at 31 g/ha: 31 g ai/ha, 0 is no effect, 100 is complete control
Method in brief: as §1

Kochia (Kochia scoparia) [8] = assay: Test A postemergence; conditions: Bassia scoparia, post-emergence, 240 h, Postemergence, read-out: Kochia plant response rating (0 to 100 scale); for pest or weed control at 125 g/ha: 125 g ai/ha, visual rating about 10 d after treatment; for pest or weed control at 31 g/ha: 31 g ai/ha, 0 is no effect, 100 is complete control
Method in brief: as §1

[9] = test system: barnyardgrass (Echinochloa crus-galli); assay: Test A postemergence; conditions: Echinochloa crus-galli, post-emergence, 240 h, Postemergence; for pest or weed control at 125 g/ha: 125 g ai/ha, visual rating about 10 d after treatment, read-out: Barnyardgrass plant response rating (0 to 100 scale, 0 no effect, 100 complete control); for pest or weed control at 31 g/ha: 31 g ai/ha, 0 is no effect, 100 is complete control, read-out: Barnyardgrass plant response rating (0 to 100 scale)
Method in brief: as §1

[10] = test system: blackgrass (Alopecurus myosuroides); assay: Test A postemergence; conditions: Alopecurus myosuroides, post-emergence, 240 h, Postemergence, read-out: Blackgrass plant response rating (0 to 100 scale); for pest or weed control at 125 g/ha: 125 g ai/ha, visual rating about 10 d after treatment; for pest or weed control at 31 g/ha: 31 g ai/ha, 0 is no effect, 100 is complete control
Method in brief: as §1

corn (Zea mays) = assay: Test A postemergence; conditions: Zea mays, post-emergence, 240 h, Postemergence, read-out: Corn plant response rating (0 to 100 scale); for plant injury at 125 g/ha: 125 g ai/ha, visual rating about 10 d after treatment; for plant injury at 31 g/ha: 31 g ai/ha, 0 is no effect, 100 is complete control
Method in brief: as §1

[11] = test system: giant foxtail (Setaria faberii); assay: Test A postemergence; conditions: Setaria faberi, post-emergence, 240 h, Postemergence, read-out: Foxtail, Giant plant response rating (0 to 100 scale); for pest or weed control at 125 g/ha: 125 g ai/ha, visual rating about 10 d after treatment; for pest or weed control at 31 g/ha: 31 g ai/ha, 0 is no effect, 100 is complete control
Method in brief: as §1

[12] = test system: pigweed (Amaranthus retroflexus); assay: Test A postemergence; conditions: Amaranthus retroflexus, post-emergence, 240 h, Postemergence, read-out: Pigweed plant response rating (0 to 100 scale); for pest or weed control at 125 g/ha: 125 g ai/ha, visual rating about 10 d after treatment; for pest or weed control at 31 g/ha: 31 g ai/ha, 0 is no effect, 100 is complete control
Method in brief: as §1

[13] = test system: ragweed (common ragweed, Ambrosia elatior); assay: Test A postemergence; conditions: Ambrosia artemisiifolia, post-emergence, 240 h, Postemergence, read-out: Ragweed plant response rating (0 to 100 scale); for pest or weed control at 125 g/ha: 125 g ai/ha, visual rating about 10 d after treatment; for pest or weed control at 31 g/ha: 31 g ai/ha, 0 is no effect, 100 is complete control
Method in brief: as §1

[14] = test system: ryegrass, Italian (Italian ryegrass, Lolium multiflorum); assay: Test A postemergence; conditions: Lolium multiflorum, post-emergence, 240 h, Postemergence, read-out: Ryegrass, Italian plant response rating (0 to 100 scale); for pest or weed control at 125 g/ha: 125 g ai/ha, visual rating about 10 d after treatment; for pest or weed control at 31 g/ha: 31 g ai/ha, 0 is no effect, 100 is complete control
Method in brief: as §1

[15] = test system: wheat (Triticum aestivum); assay: Test A postemergence; conditions: Triticum aestivum, post-emergence, 240 h, Postemergence, read-out: Wheat plant response rating (0 to 100 scale); for plant injury at 125 g/ha: 125 g ai/ha, visual rating about 10 d after treatment; for plant injury at 31 g/ha: 31 g ai/ha, 0 is no effect, 100 is complete control
Method in brief: as §1

[16] = test system: barnyardgrass (Echinochloa crus-galli); assay: Test B flooded paddy test; conditions: Echinochloa crus-galli, 360 h, Flood, 250 g ai/ha; visually evaluated after 13 to 15 d; read-out: Plant response rating, Barnyardgrass (0 to 100 scale where 0 is no effect and 100 is complete control)
Method in brief: (§2)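 Flooding to 3 cm over soil accompanied treatment, which consisted of adding compound to the standing water around 2-leaf plants; depth was then maintained. Visual assessment versus controls followed at 13 to 15 d (scale 0–100, 0 meaning no effect).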

[17] = test system: ducksalad (Heteranthera limosa); assay: Test B flooded paddy test; conditions: Heteranthera limosa, 360 h, Flood, 250 g ai/ha; visually evaluated after 13 to 15 d; read-out: Plant response rating, Ducksalad (0 to 100 scale where 0 is no effect and 100 is complete control)
Method in brief: as §2

rice (Oryra sativa) = assay: Test B flooded paddy test; conditions: Oryza sativa, 360 h, Flood, 250 g ai/ha; visually evaluated after 13 to 15 d; read-out: Plant response rating, Rice (0 to 100 scale where 0 is no effect and 100 is complete control)
Method in brief: as §2

[18] = test system: sedge, umbrella (small-flower umbrella sedge, Cyperus difformis); assay: Test B flooded paddy test; conditions: Cyperus difformis, 360 h, Flood, 250 g ai/ha; visually evaluated after 13 to 15 d; read-out: Plant response rating, Sedge, Umbrella (0 to 100 scale where 0 is no effect and 100 is complete control)
Method in brief: as §2

Compound	pest or weed control at 31 g/ha (Kochia (Kochia scoparia) [1])	pest or weed control at 125 g/ha (Kochia (Kochia scoparia) [1])	pest or weed control at 31 g/ha [2]	pest or weed control at 125 g/ha [2]	pest or weed control at 31 g/ha [3]	pest or weed control at 125 g/ha [3]	pest or weed control at 31 g/ha [4]	pest or weed control at 125 g/ha [4]	pest or weed control at 31 g/ha [5]	pest or weed control at 125 g/ha [5]	pest or weed control at 31 g/ha [6]	pest or weed control at 125 g/ha [6]	pest or weed control at 125 g/ha [7]	pest or weed control at 31 g/ha [7]	pest or weed control at 125 g/ha (Kochia (Kochia scoparia) [8])	pest or weed control at 31 g/ha (Kochia (Kochia scoparia) [8])	pest or weed control at 125 g/ha [9]	pest or weed control at 31 g/ha [9]	pest or weed control at 125 g/ha [10]	pest or weed control at 31 g/ha [10]	further results
COc1c([C@H]2CN(C)C(=O)[C@@H]2C(=O)Nc2ccccc2SC)cccc1C(F)(F)F [Compound 1340]	0%	0%	90%	90%	40%	90%	0%	20%	0%	0%	0%	0%	20%	0%	20%	0%	30%	20%	0%	0%	plant injury at 125 g/ha (corn (Zea mays)): 20%; plant injury at 31 g/ha (corn (Zea mays)): 0%; pest or weed control at 125 g/ha [11]: 50%; pest or weed control at 31 g/ha [11]: 0%; pest or weed control at 125 g/ha [12]: 0%; pest or weed control at 31 g/ha [12]: 0%; pest or weed control at 125 g/ha [13]: 0%; pest or weed control at 31 g/ha [13]: 0%; pest or weed control at 125 g/ha [14]: 0%; pest or weed control at 31 g/ha [14]: 0%; plant injury at 125 g/ha [15]: 0%; plant injury at 31 g/ha [15]: 0%; pest or weed control at 250 g/ha [16]: 40%; pest or weed control at 250 g/ha [17]: 80%; pest or weed control at 250 g/ha (rice (Oryra sativa)): 20%; pest or weed control at 250 g/ha [18]: 0%
Cc1cccc([C@H]2CN(C)C(=O)[C@@H]2C(=O)Nc2cccnc2F)c1 [Compound 1345]	0%	40%	80%	100%	90%	100%	0%	0%	0%	60%	0%	0%	20%	0%	0%	0%	90%	50%	20%	0%	plant injury at 125 g/ha (corn (Zea mays)): 0%; plant injury at 31 g/ha (corn (Zea mays)): 0%; pest or weed control at 125 g/ha [11]: 90%; pest or weed control at 31 g/ha [11]: 20%; pest or weed control at 125 g/ha [12]: 0%; pest or weed control at 31 g/ha [12]: 0%; pest or weed control at 125 g/ha [13]: 0%; pest or weed control at 31 g/ha [13]: 0%; pest or weed control at 125 g/ha [14]: 0%; pest or weed control at 31 g/ha [14]: 0%; plant injury at 125 g/ha [15]: 0%; plant injury at 31 g/ha [15]: 0%; pest or weed control at 250 g/ha [16]: 90%; pest or weed control at 250 g/ha [17]: 95%; pest or weed control at 250 g/ha (rice (Oryra sativa)): 0%; pest or weed control at 250 g/ha [18]: 0%
